Data published in US8268809B2, “Kinase inhibitors for preventing or treating pathogen infection and method of use thereof” (priority 2006, dated 2012).
“Also recorded” adds a separate entry of the source.

Tested on: vaccinia virus
Type: cell-based
For VACCINIA PLAQUE ASSAY 2 in this document: test concentration or dose not given here.

Row | SMILES | Class category of infected monolayers in plaque assay | VACCINIA PLAQUE ASSAY 2 | VACCINIA Plaque Assay | Plaque phenotype due to drug treatment (FIGS. 1, 2, 4)
1 | CCc1nnc2ccc(-c3cccc(NC(=O)c4ccc(OC)c(OC)c4)c3)nn12 [YYB41] | Class II | SMALL PLAQUES | SMALL PLAQUES | –
2 | Cn1c(=O)c(-c2c(Cl)cccc2Cl)cc2cnc(Nc3ccc(Br)cc3)nc21 [PD-Br] | Class III | NO PLAQUES | SMALL PLAQUES, CPE | –
3 | CCOC(=O)c1ccc(-c2ccc3c(-c4ccc(C(=O)OCC)cc4)n[nH]c3n2)cc1 [APcK-48] | Class III | SMALL PLAQUES | PINPOINT PLAQUES | –
4 | Cc1ccc(-n2c(=O)[nH]c3c(C(N)=O)nc(-c4ccc([N+](=O)[O-])cc4[N+](=O)[O-])nc32)cc1 [dm-I-180] | – | – | LARGE TAILS | –
5 | Brc1cnc2c(NCc3cccs3)nccn12 [LG2-95] | Class III | NO PLAQUES | PINPOINT PLAQUES | –
6 | O=C1NC(=O)/C(=C/c2ccc3nccnc3c2)S1 [AS-604240, reference compound] | Class III | PINPOINT PLAQUES | PINPOINT PLAQUES | –
7 | COc1ccc(-c2n[nH]c3nc(-c4ccc(C(=O)c5ccccc5)cc4)ccc23)cc1 [APcK-34] | – | – | SMALL PLAQUES, LARGE COMETS | small plaque and large comets; also recorded: small plaques with large comets
8 | COc1cc(OC)cc(-c2ccc3c(-c4ccc(F)c(C)c4)n[nH]c3n2)c1 [APcK-109] | Class II | SMALL PLAQUES, LARGE TAILS | SLIGHTLY SMALLER PLAQUES | –
9 | COc1cc(OC)cc(-c2ccc3c(-c4ccc(F)cc4)n[nH]c3n2)c1 [APcK-110] | Class II | SMALL PLAQUES | SMALL PLAQUES, SEE LOTS OF SATELLITE PLAQUES | –
10 | CN(C)CCNC(=O)c1ccc(-c2cnc3c(Nc4ccc(Oc5ccccc5)cc4)nccn23)cc1 [LG2-11] | Class III | NO PLAQUES | CPE, PINPOINT PLAQUES | –
11 | CC(=O)Nc1ccc(-c2ccc3c(-c4ccc(Br)cc4)n[nH]c3n2)cc1 [APcK-27] | Class III | SMALL PLAQUES | PINPOINT PLAQUES | pinpoint plaque formations; also recorded: pinpoint plaques
12 | Cn1c(=O)c(-c2c(Cl)cccc2Cl)cc2cnc(NC3CCCCC3)nc21 [YYA194] | Class III | NO PLAQUES | PINPOINT PLAQUES | –
13 | O=C(Nc1cccc(-c2ccc3nnc(-c4ccco4)n3n2)c1)Sc1ccccc1 [LG2-79] | Class II | SMALL PLAQUES | SMALLER PLAQUES, COMETS? | –
14 | CC(=O)Nc1cccc(-c2ccc3c(-c4ccc(F)c(C)c4)n[nH]c3n2)c1 [APcK-102] | Class III | NO PLAQUES | SMALLER PLAQUES THAN WT | –
15 | Cc1ccc(-n2c(=O)[nH]c3c(C(N)=O)nc(-c4c(Cl)cccc4[N+](=O)[O-])nc32)cc1 [dm-I-193] | Class III | NO PLAQUES | SMALL PLAQUES | –
16 | O=C(c1ccccc1)c1ccc(-c2ccc3c(-c4ccc(Br)c(F)c4)n[nH]c3n2)cc1 [APcK-38] | – | NO PLAQUES | – | –
17 | O=C(c1ccccc1)c1ccc(-c2ccc3c(-c4ccc(Br)cc4F)n[nH]c3n2)cc1 [APcK-39] | – | NO PLAQUES | – | –
18 | COC(=O)C1(Cc2ccccc2)OC(=O)C(O)=C1c1ccccc1 (stereo not shown) [butyro- lactones-1] | – | – | SMALL PLAQUES WITH LARGE TAILS OR CPE | more plaque formations than wild type; also recorded: more plaques than WT
19 | Cn1c(=O)c(-c2c(Cl)cccc2Cl)cc2cnc(Nc3ccc(O)cc3)nc21 [YYA190] | – | – | CPE (MONO- LAYER NOT INFECTED WITH VV; DRUG DE- STROYED MONO- LAYER, THOUGH) | –
20 | CCOC(=O)c1ccc(-c2n[nH]c3nc(-c4ccc5cc[nH]c5c4)ccc23)cc1 [APcK-58] | – | NO PLAQUES | – | –
21 | COc1cccc(-c2cnc3c(Nc4ccccc4)nccn23)c1 [LG2-85] | Class III | NO PLAQUES | PINPOINT PLAQUES | –
22 | O=C1NC(=O)/C(=C/c2ccc3c(c2)OC(F)(F)O3)S1 [AS-604850, reference compound] | Class III | NO PLAQUES | NO PLAQUES | –
23 | CC(=O)Nc1ccc(-c2ccc3c(-c4ccc(C)c(F)c4)n[nH]c3n2)cc1 [APcK-28] | – | SMALL PLAQUES | – | –

Row | SMILES | Class category of infected monolayers in plaque assay | VACCINIA PLAQUE ASSAY 2 | VACCINIA Plaque Assay | Plaque phenotype due to drug treatment (FIGS. 1, 2, 4)
24 | COc1ccc(-c2n[nH]c3nc(-c4ccc(O)cc4OC)ccc23)cc1 [APcK-31] | – | SMALL PLAQUES | – | –
25 | CN(C)CCCNC(=O)/C=C\C(=O)Nc1ccc2ncnc(Nc3cccc(I)c3)c2c1 [JGAP-13] | – | – | MORE PLAQUES THAN WT | more plaque formations than wild type; also recorded: more plaques than WT
26 | CC(=O)Nc1cccc(-c2ccc3c(-c4ccc(Cl)cc4Cl)n[nH]c3n2)c1 [APcK-40] | Class III | PINPOINT PLAQUES | SLIGHTLY SMALLER PLAQUES | –
27 | Cc1ccc(-c2n[nH]c3nc(-c4ccc(C(=O)c5ccccc5)cc4)ccc23)cc1F [APcK-37] | – | SMALL PLAQUES | – | –
28 | O=C(NCCO)c1cccc(-c2cnc3c(NCc4cccs4)nccn23)c1 [LG2-98] | Class III | PINPOINTS | SMALL PLAQUES, WITH TAILS | –
29 | Fc1ccc(CNc2nccn3c(Br)cnc23)cc1 [LG2-91] | Class III | NO PLAQUES | NO PLAQUES | no pinpoint plaque formed; also recorded: no plaques
30 | CCOC(=O)c1ccc(-c2n[nH]c3nc(-c4cc(OC)cc(OC)c4)ccc23)cc1 [APcK-108] | Class III | SMALL PLAQUES | PINPOINT PLAQUES | pinpoint plaque formations; also recorded: pinpoint plaques
31 | Cc1ccc(-n2c(=O)[nH]c3c(C(N)=O)nc(C4CCCCC4)nc32)cc1 [dm-I-203] | Class III | PINPOINTS | SMALL PLAQUES | –
32 | CCN(CC)CCNC(=O)/C=C\C(=O)Nc1ccc2ncnc(Nc3cccc(I)c3)c2c1 [JGAP-11] | – | – | MORE PLAQUES THAN WT | –
33 | CCOC(=O)c1ccc(-c2n[nH]c3nc(-c4ccc(NC(C)=O)cc4)ccc23)cc1 [APcK-19] | – | SMALL PLAQUES | – | –
34 | COc1ccccc1NS(=O)(=O)c1cccc(Nc2cc(-c3ccc(C(=O)O)cc3)ncn2)c1 [Eph2_wbz 104] | Class III | SLIGHTLY SMALLER PLAQUES | NO PLAQUES | –
35 | O=C(Nc1cccc(-c2ccc3nnc(-c4cccs4)n3n2)c1)c1cccc([N+](=O)[O-])c1 [YYB32] | Class III | SMALL PLAQUES | SMALLER PLAQUES | –
36 | COc1cc(OC)cc(-c2ccc3c(-c4ccc(Cl)c(F)c4)n[nH]c3n2)c1 [APcK-111] | Class III | PINPOINT PLAQUES | PINPOINT PLAQUES | pinpoint plaque formations; also recorded: pinpoint plaques
37 | CC(=O)Nc1cccc(-c2ccc3c(-c4ccc(Cl)c(F)c4)n[nH]c3n2)c1 [APcK-104] | Class III | PINPOINT PLAQUES | SMALLER PLAQUES THAN WT. NO COMETS | –
38 | CC(=O)Nc1cccc(-c2ccc3c(-c4ccc(C#N)cc4)n[nH]c3n2)c1 [APcK-44] | Class III | PINPOINT PLAQUES | SMALL PLAQUES WITH COMETS | –
39 | COc1cccc(-c2cc(Nc3cccc(S(=O)(=O)Nc4ccccc4OC)c3)ncn2)c1 [Eph2_wbz 112] | Class III | PINPOINT | SMALL PLAQUES | –
40 | Cc1ccc(NC(=O)c2ccc(CN3CCN(Cc4ccc(I)cc4)CC3)cc2)cc1Nc1nccc(-c2cccnc2)n1 [STLL3] | Class III | NO PLAQUES | PINPOINT PLAQUES | –
41 | Cn1c(=O)c(-c2c(Cl)cccc2Cl)cc2cnc(Nc3cccc(N)n3)nc21 [YYA104] | Class III | NO PLAQUES | PINPOINT PLAQUES | –
42 | O=C(Nc1cccc(-c2ccc(Cl)nn2)c1)Oc1ccccc1 [LG2-111] | – | – | PINPOINT PLAQUES | –
43 | CC(=O)Nc1ccc(-c2ccc3c(-c4ccc(Cl)cc4Cl)n[nH]c3n2)cc1 [APcK-26] | Class III | SMALL PLAQUES | PINPOINT PLAQUES | pinpoint plaque formations; also recorded: pinpoint plaques
44 | COc1cc(OC)cc(-c2cnc3c(NCC4CC4)nccn23)c1 [LG2-102] | Class III | NO PLAQUES | NO PLAQUES | –
45 | Cc1ccc(NC(=O)c2ccc(CN3CCN(CCF)CC3)cc2)cc1Nc1nccc(-c2cccnc2)n1 [STLF2] | Class III | NO PLAQUES | PIN POINT PLAQUES | –
46 | Cn1c(=O)c(-c2c(Cl)cccc2Cl)cc2cnc(Nc3cccc(C(C)(C)C)c3)nc21 [YYA195] | Class III | NO PLAQUES | NO PLAQUES | –
